Paper PMC6893898, “Receptor Interaction Profiles of 4-Alkoxy-Substituted 2,5-Dimethoxyphenethylamines and Related Amphetamines” (Frontiers in Pharmacology, 2019)

Molecular target: T1, human 5-HT2B receptor (Homo sapiens, UniProt P41595)
T1 construct: expressed in transfected cells; host or cells: HEK 293
Experiment: Activity at the 5-HT2B receptor (FLIPR calcium, HEK 293 cells)
Format: cell-based
Conditions: not given
Description: Activity at the 5-HT2B receptor was examined as previously described ([Luethi et al., 2018]). In summary, HEK 293 cells expressing the human 5-HT2B receptor were seeded at a density of 50,000 cells per well in 96-well poly-D-lysine-coated plates overnight at 37°C. The cells were then incubated in growth medium consisting of high glucose Dulbecco’s modified Eagle’s medium (DMEM) (Invitrogen, Zug, Switzerland), 10% fetal calf serum (non-dialyzed, heat-inactivated), 250 mg/l Geneticin and 10 ml/l PenStrep (Gibco), overnight at 37°C. After removal of the growth medium via snap inversion, calcium indicator Fluo-4-solution (100 µl) was injected into each well (Molecular Probes, Eugene, OR, USA) and incubated for 45 min at 31°C. Afterwards, the Fluo-4 solution was removed (snap inversion) and a further 100 µl of the Fluo-4 solution was added and incubated (45 min, 31°C). Thereafter, using the EMBLA cell washer, the cells were washed just before testing with HBSS and 20 mM HEPES and exposed to 100 µl of assay buffer. The well plate was positioned in the FLIPR and while online, 25 µl of the test compounds diluted in assay buffer were added. Concentration-response curves were calculated using nonlinear regression, and EC50 values were obtained. The maximal activity at the receptors was calculated relative to 5-HT activity which was defined as 100%.

T1 sequence (P41595 whole entry): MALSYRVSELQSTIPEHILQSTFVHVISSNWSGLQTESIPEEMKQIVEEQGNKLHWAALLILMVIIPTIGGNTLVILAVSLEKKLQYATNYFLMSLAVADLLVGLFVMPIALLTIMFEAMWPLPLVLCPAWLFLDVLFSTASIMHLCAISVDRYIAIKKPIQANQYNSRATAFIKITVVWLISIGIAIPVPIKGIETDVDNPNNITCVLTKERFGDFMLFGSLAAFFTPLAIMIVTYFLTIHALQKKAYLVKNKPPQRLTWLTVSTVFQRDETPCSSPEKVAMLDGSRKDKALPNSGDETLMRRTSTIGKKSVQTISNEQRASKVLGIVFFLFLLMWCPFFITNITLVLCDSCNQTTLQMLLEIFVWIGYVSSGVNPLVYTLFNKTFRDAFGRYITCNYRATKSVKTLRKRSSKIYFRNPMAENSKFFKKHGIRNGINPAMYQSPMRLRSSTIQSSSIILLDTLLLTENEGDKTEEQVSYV

| SMILES | EC50 [nM] | Higher 5-HT2B activation potency compared to TMA-2 (19) [fold] | Increase in 5-HT2B activation potency compared to 2C-O-21 (9) [fold] |
| --- | --- | --- | --- |
| C=CCOc1cc(OC)c(CCN)cc1OC [2C-O-16, 4-allyloxy-2,5-dimethoxyphenethylamine] | 120 ± 70 | – | – |
| C=C(C)COc1cc(OC)c(CCN)cc1OC [2C-O-3, 2,5-dimethoxy-4-methallyloxyphenethylamine] | 68 ± 21 | – | – |
| CCOc1cc(OC)c(CCN)cc1OC [2C-O-2, 2,5-dimethoxy-4-ethoxyphenethylamine] | 49 ± 44 | – | – |
| COc1cc(OCCF)c(OC)cc1CC(C)N (centres unmarked) [MFEM, 2,5-dimethoxy-4-(2-fluoroethoxy)amphetamine] | 270 ± 210 | – | – |
| C=CCOc1cc(OC)c(CC(C)N)cc1OC (centres unmarked) [MALM, 4-allyloxy-2,5-dimethoxyamphetamine] | 9.5 ± 3.3 | 28 | – |
| COc1cc(OCC(F)F)c(OC)cc1CCN [2C-O-21.5, 4-(2,2-difluoroethoxy)-2,5-dimethoxyphenethylamine] | 480 ± 260 | – | 2 |
| COc1cc(OCCF)c(OC)cc1CCN [2C-O-21, 2,5-dimethoxy-4-(2-fluoroethoxy)phenethylamine] | 900 ± 450 | – | – |

Same assay, conditions: HEK293, relative to 5-HT = 100%; read-out: h5-HT2B Activation efficacy max ± SD

| SMILES | Emax [%] |
| --- | --- |
| C=CCOc1cc(OC)c(CCN)cc1OC [2C-O-16, 4-allyloxy-2,5-dimethoxyphenethylamine] | 42 ± 13 |
| C=C(C)COc1cc(OC)c(CCN)cc1OC [2C-O-3, 2,5-dimethoxy-4-methallyloxyphenethylamine] | 50 ± 22 |
| CCOc1cc(OC)c(CCN)cc1OC [2C-O-2, 2,5-dimethoxy-4-ethoxyphenethylamine] | 85 to 101 |
| COc1cc(OCCF)c(OC)cc1CC(C)N (centres unmarked) [MFEM, 2,5-dimethoxy-4-(2-fluoroethoxy)amphetamine] | 41 ± 22 |
| C=CCOc1cc(OC)c(CC(C)N)cc1OC (centres unmarked) [MALM, 4-allyloxy-2,5-dimethoxyamphetamine] | 85 to 101 |
| COc1cc(OCC(F)F)c(OC)cc1CCN [2C-O-21.5, 4-(2,2-difluoroethoxy)-2,5-dimethoxyphenethylamine] | 28 ± 23 |
| COc1cc(OCCF)c(OC)cc1CCN [2C-O-21, 2,5-dimethoxy-4-(2-fluoroethoxy)phenethylamine] | 39 ± 26 |

Molecular target: T2, human TAAR1 (Homo sapiens, UniProt Q96RJ0)
T2 construct: expressed in transfected cells; host or cells: HEK 293 (recombinant, Geneticin/hygromycin B selection)
T2 sequence (Q96RJ0 1-339): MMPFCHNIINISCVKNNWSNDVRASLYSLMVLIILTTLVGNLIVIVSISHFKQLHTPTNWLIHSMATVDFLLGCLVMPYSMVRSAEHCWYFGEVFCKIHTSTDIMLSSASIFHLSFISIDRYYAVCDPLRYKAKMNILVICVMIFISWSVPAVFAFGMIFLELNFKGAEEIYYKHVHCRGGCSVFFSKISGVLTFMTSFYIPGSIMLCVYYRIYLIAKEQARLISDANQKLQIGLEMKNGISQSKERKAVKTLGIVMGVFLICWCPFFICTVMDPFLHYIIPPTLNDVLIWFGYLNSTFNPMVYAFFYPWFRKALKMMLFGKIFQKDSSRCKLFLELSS
Experiment: Activity at the human TAAR1 (cAMP, HEK 293 cells)
Format: cell-based
Conditions: human TAAR1 EC50 ± SD
Description: Activity at the human TAAR1 was examined as previously described in full detail ([Luethi et al., 2018]). In summary, human TAAR1 expressing recombinant HEK 293 cells were grown in 250 ml falcon culture flasks containing 30 ml of high glucose DMEM (10% heat inactivated fetal calf serum, 500 µg/ml Geneticin [Gibco, Zug, Switzerland] and 500 µg/ml hygromycin B) at 37°C and 5% CO2/95% air. At 80-90% confluency, the cells were collected. The medium was aspirated, cells were washed with phosphate-buffered saline (PBS) and then trypsinized for 5 min at 37°C with 5 ml of trypsin/EDTA solution. Next, 45 ml of medium was added and the mixture was transferred into a falcon tube. After centrifugation (900 rpm, 3 min, RT), the supernatant was aspirated and the remaining cell pellet was resuspended in fresh medium to […]. Using a multipipette, 100 µl of cells were transferred (80,000 cells/well) into a 96-well plate (BIOCOAT 6640, Becton Dickinson, Allschwil, Switzerland) and incubated for 20 h at 37°C. For the cAMP assay, the medium was aspirated replaced with 50 µL PBS without Ca^2+ and Mg^2+ ions. The PBS was then extracted using snap inversion and the plate was softly tapped against tissue; 90 µL of Krebs-Ringer Bicarbonate buffer (Sigma-Aldrich) containing 1 mM IBMX was added and incubated for 60 min at 37°C and 5% CO2/95% air. A concentration range between 300 pM and 30 µM of test compounds was examined in duplicate. A standard curve with a range of cAMP concentrations (0.13 nM to 10 µM) was created per 96-well plate. Each experiment was accompanied with a reference plate that included three compounds; RO5256390, β-phenylethylamine, and p-tyramine. The cells were exposed to either 30 µl of compound solution, 30 µl of β-phenylethylamine (as maximal response), or a basal control in PBS (containing 1 mM IBMX) for 40 min at 37°C. Next, under forceful shaking using black lids, the cells were exposed to 50 µl of 3x detection mix solution (composed of Ru-cAMP Alexa700 anti-cAMP antibody and lysis buffer) for 120 min at room temperature in order to lyse the cells. Using the NanoScan reader (Innovative Optische Messtechnik, Berlin, Germany; 456 nm excitation wavelength; 630 and 700 nm emission wavelengths), the fluorescence was examined and the fluorescence resonance energy transfer (FRET) signal was determined using the following equation; FRET (700 nm) − P × FRET (630 nm), where P = Ru (700 nm)/Ru (630 nm). Receptor binding affinity at the human TAAR1 was not determined since unfortunately, there are no suitable radioligands available for this receptor.
Functional activity of the derivatives was only examined at the human TAAR1 and not at the mouse and rat TAAR1, because functional assays are not set up.

| SMILES | EC50 [nM] |
| --- | --- |
| C=CCOc1cc(OC)c(CCN)cc1OC [2C-O-16, 4-allyloxy-2,5-dimethoxyphenethylamine] | > 30000 |
| C=C(C)COc1cc(OC)c(CCN)cc1OC [2C-O-3, 2,5-dimethoxy-4-methallyloxyphenethylamine] | > 30000 |
| CCOc1cc(OC)c(CCN)cc1OC [2C-O-2, 2,5-dimethoxy-4-ethoxyphenethylamine] | 9600 ± 6340 |
| COc1cc(OCCF)c(OC)cc1CC(C)N (centres unmarked) [MFEM, 2,5-dimethoxy-4-(2-fluoroethoxy)amphetamine] | > 30000 |
| C=CCOc1cc(OC)c(CC(C)N)cc1OC (centres unmarked) [MALM, 4-allyloxy-2,5-dimethoxyamphetamine] | > 30000 |
| COc1cc(OCC(F)F)c(OC)cc1CCN [2C-O-21.5, 4-(2,2-difluoroethoxy)-2,5-dimethoxyphenethylamine] | > 30000 |
| COc1cc(OCCF)c(OC)cc1CCN [2C-O-21, 2,5-dimethoxy-4-(2-fluoroethoxy)phenethylamine] | > 30000 |

Molecular target: T3, 5-HT1A receptor (Homo sapiens, UniProt P08908)
T3 construct: expressed in transfected cells; host or cells: HEK 293 (membrane preparation)
T3 sequence (P08908 1-422): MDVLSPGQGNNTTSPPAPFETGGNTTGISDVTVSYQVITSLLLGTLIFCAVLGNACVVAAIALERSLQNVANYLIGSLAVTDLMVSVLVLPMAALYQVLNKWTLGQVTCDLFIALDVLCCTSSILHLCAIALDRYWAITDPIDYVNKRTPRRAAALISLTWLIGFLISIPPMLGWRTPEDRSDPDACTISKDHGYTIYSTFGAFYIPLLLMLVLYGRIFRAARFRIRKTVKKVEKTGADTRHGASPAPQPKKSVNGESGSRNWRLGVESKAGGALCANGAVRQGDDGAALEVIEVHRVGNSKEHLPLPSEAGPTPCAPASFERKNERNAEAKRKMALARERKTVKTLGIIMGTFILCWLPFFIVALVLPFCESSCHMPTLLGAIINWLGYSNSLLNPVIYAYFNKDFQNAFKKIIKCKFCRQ
Experiment: Radioligand binding, 5-HT1A receptor ([3H]8-OH-DPAT)
Conditions: not given

| SMILES | Ki [nM] |
| --- | --- |
| C=CCOc1cc(OC)c(CCN)cc1OC [2C-O-16, 4-allyloxy-2,5-dimethoxyphenethylamine] | 4500 ± 500 |
| C=C(C)COc1cc(OC)c(CCN)cc1OC [2C-O-3, 2,5-dimethoxy-4-methallyloxyphenethylamine] | 2700 ± 200 |
| CCOc1cc(OC)c(CCN)cc1OC [2C-O-2, 2,5-dimethoxy-4-ethoxyphenethylamine] | 3600 ± 400 |
| COc1cc(OCCF)c(OC)cc1CC(C)N (centres unmarked) [MFEM, 2,5-dimethoxy-4-(2-fluoroethoxy)amphetamine] | > 5600 |
| C=CCOc1cc(OC)c(CC(C)N)cc1OC (centres unmarked) [MALM, 4-allyloxy-2,5-dimethoxyamphetamine] | > 5600 |
| COc1cc(OCC(F)F)c(OC)cc1CCN [2C-O-21.5, 4-(2,2-difluoroethoxy)-2,5-dimethoxyphenethylamine] | 2900 ± 200 |
| COc1cc(OCCF)c(OC)cc1CCN [2C-O-21, 2,5-dimethoxy-4-(2-fluoroethoxy)phenethylamine] | 5500 |

Molecular target: T4, rat TAAR1 (Rattus norvegicus, UniProt Q923Y9)
T4 construct: expressed in transfected cells; host or cells: HEK 293 (membrane preparation)
T4 sequence (Q923Y9 whole entry): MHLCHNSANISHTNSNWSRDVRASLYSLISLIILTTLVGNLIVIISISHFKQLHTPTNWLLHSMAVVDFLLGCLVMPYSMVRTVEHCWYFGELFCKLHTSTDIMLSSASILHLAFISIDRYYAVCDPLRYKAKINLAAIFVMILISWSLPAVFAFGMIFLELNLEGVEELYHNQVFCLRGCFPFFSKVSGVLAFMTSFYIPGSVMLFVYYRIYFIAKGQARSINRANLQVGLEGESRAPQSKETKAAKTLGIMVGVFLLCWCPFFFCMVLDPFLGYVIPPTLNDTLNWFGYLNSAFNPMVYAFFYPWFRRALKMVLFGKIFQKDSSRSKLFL
Experiment: Radioligand binding, rat TAAR1 ([3H]RO5166017)
Conditions: not given

| SMILES | Ki [nM] | Higher rat TAAR1 affinity than TMA-2 (19) and MIPM (18) [fold] |
| --- | --- | --- |
| C=CCOc1cc(OC)c(CCN)cc1OC [2C-O-16, 4-allyloxy-2,5-dimethoxyphenethylamine] | 260 ± 70 | – |
| C=C(C)COc1cc(OC)c(CCN)cc1OC [2C-O-3, 2,5-dimethoxy-4-methallyloxyphenethylamine] | 130 | – |
| CCOc1cc(OC)c(CCN)cc1OC [2C-O-2, 2,5-dimethoxy-4-ethoxyphenethylamine] | 340 ± 70 | – |
| COc1cc(OCCF)c(OC)cc1CC(C)N (centres unmarked) [MFEM, 2,5-dimethoxy-4-(2-fluoroethoxy)amphetamine] | 1640 ± 300 | – |
| C=CCOc1cc(OC)c(CC(C)N)cc1OC (centres unmarked) [MALM, 4-allyloxy-2,5-dimethoxyamphetamine] | 1100 ± 200 | 3 |
| COc1cc(OCC(F)F)c(OC)cc1CCN [2C-O-21.5, 4-(2,2-difluoroethoxy)-2,5-dimethoxyphenethylamine] | 250 ± 20 | – |
| COc1cc(OCCF)c(OC)cc1CCN [2C-O-21, 2,5-dimethoxy-4-(2-fluoroethoxy)phenethylamine] | 410 ± 40 | – |
